Data: PubChem BioAssay (NCI)
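Assay format: 96-well plates, 48-hour exposure. TGI denotes the concentration required for complete inhibition of growth.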

Assays:
Assay in all cases: NCI-60 cell line screen, 48 h
DU-145 prostate = tested on: DU-145 prostate
SNB-75 CNS = tested on: SNB-75 CNS
NCI-H226 lung = tested on: NCI-H226 lung
MDA-MB-435 = tested on: MDA-MB-435
SF-539 CNS = tested on: SF-539 CNS
SK-OV-3 ovarian = tested on: SK-OV-3 ovarian
ACHN renal = tested on: ACHN renal
HS 578T breast = tested on: HS 578T breast
UO-31 renal = tested on: UO-31 renal
SF-268 CNS = tested on: SF-268 CNS
LOX IMVI melanoma = tested on: LOX IMVI melanoma

Row | Compound | TGI (DU-145 prostate) | TGI (SNB-75 CNS) | TGI (NCI-H226 lung) | TGI (MDA-MB-435) | TGI (SF-539 CNS) | TGI (SK-OV-3 ovarian) | TGI (ACHN renal) | TGI (HS 578T breast) | TGI (UO-31 renal) | TGI (SF-268 CNS) | TGI (LOX IMVI melanoma)
1 | Cc1nc(-c2cc3cc([N+](=O)[O-])ccc3oc2=O)cs1 | > 100 µM | 94.8 µM | > 100 µM | > 100 µM | > 100 µM | > 100 µM | > 100 µM | > 100 µM | > 100 µM | > 100 µM | > 100 µM
2 | COc1cc(CNCc2cc(OC)c(OC)c(OC)c2)cc(OC)c1OC | > 10 µM | > 10 µM | > 10 µM | > 10 µM | > 10 µM | > 10 µM | > 10 µM | > 10 µM | > 10 µM | > 10 µM | > 10 µM
3 | Cc1ccc(/C=C2\CCCc3ccccc3C2=O)cc1 | > 100 µM | > 100 µM | 36.1 µM | 8.46 µM | 37.5 µM | 58 µM | > 100 µM | 30.8 µM | > 100 µM | 30.7 µM | 30 µM
4 | COc1cc(C(=O)N(Cc2cccnc2)C(=S)N(Cc2cccnc2)C(=O)c2cc(OC)c(OC)c(OC)c2)cc(OC)c1OC | > 100 µM | 56.7 µM | > 100 µM | > 100 µM | > 100 µM | > 100 µM | > 100 µM | > 100 µM | > 100 µM | > 100 µM | > 100 µM
5 | O=C1C(CN2CCCCC2)CCC1CN1CCCCC1 (centres undefined) | > 100 µM | > 75.6 µM | > 100 µM | 51.8 µM | 56.1 µM | > 100 µM | 47.5 µM | > 73.2 µM | 22.1 µM | > 74.8 µM | 31.7 µM
6 | CCOC(=O)/C=C(/C(=O)OCC)n1ccc(=O)n(Cc2cn(COCCOC(C)=O)nn2)c1=O | > 100 µM | > 100 µM | > 100 µM | 36 µM | 34.5 µM | > 100 µM | 28 µM | 70.9 µM | 31.9 µM | 33.5 µM | 41.9 µM
7 | CCN(CC)C(=S)N/N=C(/C)c1cccc(/C(C)=N\NC(=S)N(CC)CC)n1 | 4.83 µM | 10.2 µM | 4.77 µM | 14.9 µM | 3.28 µM | 5.43 µM | 4.61 µM | > 100 µM | 7.94 µM | 7.47 µM | 7.36 µM
8 | COc1ccc(C2OC[C@H]3O[C@@H](OCc4ccccc4)[C@H](O)[C@@H](O)[C@@H]3O2)cc1 (some centres undefined) | > 100 µM | > 100 µM | > 100 µM | > 100 µM | > 100 µM | > 100 µM | > 100 µM | > 100 µM | > 100 µM | > 100 µM | > 100 µM
9 | C=CC(CCc1ccc(C(=O)OCC)cc1)c1c(N)nc(N)[nH]c1=O (centres undefined) | > 100 µM | > 100 µM | > 100 µM | > 100 µM | > 100 µM | > 100 µM |  | > 100 µM | > 100 µM | > 100 µM | > 100 µM
10 | c1ccc2c(c1)ccn2CCc1c[nH]c2ccccc12 | > 10 µM | > 10 µM | > 10 µM | > 10 µM | > 10 µM | > 10 µM | > 10 µM | > 10 µM | > 10 µM | > 10 µM | > 10 µM
11 | CSc1ncnc2c1ncn2C1CC(Oc2ccc(C)cc2)C(COc2ccc(C)cc2)O1 (centres undefined) | > 100 µM | > 100 µM | > 100 µM | > 100 µM | > 100 µM | > 100 µM | > 100 µM | > 100 µM |  | > 100 µM | > 100 µM
12 | NC(N)=NCCC[C@H](N)C(=O)NCC(=O)N[C@@H](CC(=O)O)c1ncc(NC(=O)C(F)(F)F)o1 | > 25 µM | > 25 µM | > 25 µM | > 25 µM | > 25 µM | > 25 µM | > 25 µM | > 25 µM | > 25 µM | > 25 µM | > 25 µM
13 | CC(=O)OC(/C=C/c1ccccc1)=C(OC(C)C)/C1=C(\c2ccccc2)SCCCSC1=O | > 100 µM | > 100 µM | > 100 µM | > 100 µM | > 100 µM | > 100 µM | > 100 µM | > 100 µM | > 100 µM | > 100 µM | > 100 µM
14 | C[N+](C)(C)CC1CCCCCCCCCCC1=O (centres undefined) | > 100 µM | > 100 µM | > 100 µM | > 100 µM | > 100 µM | > 100 µM | > 100 µM | > 100 µM | > 100 µM | > 100 µM | > 100 µM
15 | CCOCc1nc2c(OC)cc(-c3nc4ccc(N5CCN(C)CC5)cc4[nH]3)c(OC)c2[nH]1 | > 100 µM | 87.1 µM | 81 µM | 45.8 µM | 36.1 µM | > 100 µM | > 100 µM | > 100 µM | 41.8 µM | > 100 µM | 42.3 µM
16 | CCN(CC)C(=O)Cn1c(C)cc2ccccc21 | > 100 µM | > 100 µM | > 100 µM | > 100 µM | > 100 µM | > 100 µM | > 100 µM | > 100 µM | > 100 µM | > 100 µM | > 100 µM
